In patent US7816319B2, “Methods and products for manipulating uncoupling protein expression” (University of Vermont and State Agricultural College, priority 1999, dated 2010):

Assays:
[1] = metabolite formed from 5-FU; cited from earlier work
[2] = 5-FU that is taken up by the cell; cited from earlier work
L1210 [3] = test: Fas expression after treatment with staurosporin or adriamycin; type: cell-based
Description: (§1) 4. Treatment of L1210 DDP cells with staurosporin restores Fas expression and susceptibility to drug-induced apoptosis: L1210, but not L1210 DDP, undergo apoptotic cell death. We treated L1210 or L1210 DDP cells with the staurosporin, which inhibits protein kinase C and increases mitochondrial membrane potential, or an anti-cancer agent to which both cells are sensitive, adriamycin. Fas expression was increased or induced on both L1210 and L1210 DDP, respectively, in the presence of staurosporin or adriamycin. The L1210 DDP changed morphologically and began to divide rapidly, changes which appeared to correspond with a reversion back to the phenotype of the L1210 cells.

L1210 DDP = test: as above; type: cell-based
Description: as §1

L1210/DDP = test: Analysis of DNA fragments after methotrexate treatment; type: cell-based; details: 10^-8 M methotrexate, 24 hours
Procedure: (§2) Additionally, L1210 and L1210/DDP cells were treated with 10^-8 M methotrexate for 24 hours. […] The forward scatter low populations took up ethidium bromide differentially. The L1210 cells took up a moderate amount. […] This latter phenotype—loss in forward scatter and membrane permeability with no “DNA laddering”—is the hall mark of oncosis.

L1210 [4] = test: as above; type: cell-based; details: 10^-8 M methotrexate, 24 hours
Procedure: as §2

[5] = tested on: Fas deficient lymphocytes; test: Methotrexate-induced apoptosis in splenic lymphocytes, viability by flow cytometry and trypan blue; type: cell-based, mice; details: splenocytes of C57BL/6 lpr or gld vs wild type; 5×10^−8 M methotrexate, 18 or 32 hours
Procedure: 8. Fas Deficient Lymphocytes are also drug resistant to methotrexate: We isolated splenic lymphocytes from aged-matched wild type C57BL/6 mice and C57BL6.1pr and C57BL.gld. Splenocytes from C57BL/6 lpr or gld animals were isolated, red cells depleted, and single cell suspensions prepared. Cells were cultured in the absence or presence of 5×10^−8 M methotrexate for 18 or 32 hours. Cells were harvested and viability was determined by flow cytometric analysis and confirmed with trypan blue exclusion.

L1210DDP [6] = details: graded concentrations of sodium acetate
Procedure: (§3) Sodium Acetate as a mitochondrial modifying agent was examined. L1210 or L1210DDP cells were cultured in the presence of graded concentrations of sodium acetate in the medium. Cells were stained with Jo2.2, a fluorescein conjugated anti-Fas antibody, or an isotype control. Cell surface staining was measured flow cytometrically. The percentage of mean fluorescence intensity over the isotype control was plotted.

L1210 [7] = details: graded concentrations of sodium acetate
Procedure: as §3

L1210DDP [8] = tested on: L1210DDP
Description: (§4) The effects of acetate on susceptibility to Fas-dependent cell death were also examined.

L1210 [9] = tested on: L1210
Description: as §4

B16 melanoma cells [10] = details: increasing concentrations of sodium acetate
Procedure: B16 cells were cultured in the in the presence of different concentrations of sodium acetate and Fas expression was measured.
B16 cells also were cultured in the presence of different concentrations of sodium acetate and Fas expression was measured.

B16 melanoma cells [11] = details: increasing concentrations of sodium acetate; remark: listed apart in the source
Procedure: Again cells were cultured in the presence of varying concentration of sodium acetate.

MDR cells = test: Inhibition of lysosomal UCP translocation; type: cell-based
Procedure: MDR cells, which are plasma membrane UCP negative and lysosomal UCP positive were treated with tunicamycin. […] These same cells were treated with tunicamycin and an-anti-UCP2 antibody.

NCC(F)C(=O)O (stereo not drawn) [2-fluoro-β-alanine (FBAL), 2-fluoro-β-alanine]
toxicity [1]: neurotoxic and cardiotoxic

O=c1[nH]cc(F)c(=O)[nH]1 [5-FU, 5-Fluorouracil]
half-life in vivo [2]: about 18 minutes

COc1cccc2c1C(=O)c1c(O)c3c(c(O)c1C2=O)C[C@@](O)(C(=O)CO)C[C@@H]3O[C@H]1C[C@H](N)[C@H](O)[C@H](C)O1 [adriamycin]
Fas expression (L1210 [3]): increased | Fas expression (L1210 DDP): induced

CN(Cc1cnc2nc(N)nc(N)c2n1)c1ccc(C(=O)N[C@@H](CCC(=O)O)C(=O)O)cc1 [methotrexate]
DNA laddering (nucleosome sized fragments) (L1210/DDP): did not | DNA laddering (nucleosome sized fragments) (L1210 [4]): produced a ladder of nucleosome sized fragments indicative of apoptosis | susceptibility to methotrexate-induced apoptosis [5]: decreased susceptibility

CC(=O)[O-].[Na+] [sodium acetate]
cell surface Fas expression (L1210DDP [6]): increases cell surface Fas expression | cell surface Fas expression (L1210 [7]): increases cell surface Fas expression | susceptibility to Fas-dependent cell death (L1210DDP [8]): resulted in susceptibility to Fas-dependent cell death | susceptibility to Fas-dependent cell death (L1210 [9]): resulted in susceptibility to Fas-dependent cell death | levels of cell surface Fas (B16 melanoma cells [10]; non-permeabilized B16): increased | levels of intracellular Fas (B16 melanoma cells [10]; permeabilized B16): declined | glucose oxidation (B16 melanoma cells [11]): decreased | glucose utilization (B16 melanoma cells [11]): decreased

CN[C@@H]1C[C@H]2O[C@@](C)([C@@H]1OC)n1c3ccccc3c3c4c(c5c6ccccc6n2c5c31)C(=O)NC4 [staurosporin]
Fas expression (L1210 [3]): increased | Fas expression (L1210 DDP): induced

tunicamycin
localization of intracellular UCP (MDR cells): shift in the intracellular UCP from the lysosome and mitochondria to the plasma membrane
